Experimental data: PubChem BioAssay (NCI)
Several values for one entry are separate records, joined by “and”; a condition that tells them apart may be missing. Identical values can stand only once.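 Assay format: 96-well plates, 48-hour exposure. The concentration for 50% growth inhibition is given as GI50. At the TGI there is no net growth.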

Tests used:
Test in all cases: NCI tumour cell line growth inhibition, 48 h; in the data active means GI50 below about 0.43 µM; inactive means the rest
A498 renal = tested on: A498 renal
A549 NSCLC = tested on: A549 NSCLC
CCRF-CEM leukemia = tested on: CCRF-CEM leukemia
COLO 205 colon = tested on: COLO 205 colon
DLD-1 colon = tested on: DLD-1 colon
DMS 114 small cell lung = tested on: DMS 114 small cell lung
DMS 273 small cell lung = tested on: DMS 273 small cell lung
EKVX NSCLC = tested on: EKVX NSCLC
HCC-2998 colon = tested on: HCC-2998 colon
HCT-116 colon = tested on: HCT-116 colon
HCT-15 colon = tested on: HCT-15 colon
HL-60(TB) leukemia = tested on: HL-60(TB) leukemia
HOP-18 NSCLC = tested on: HOP-18 NSCLC
HOP-62 NSCLC = tested on: HOP-62 NSCLC
HOP-92 NSCLC = tested on: HOP-92 NSCLC
HT29 colon = tested on: HT29 colon
IGROV1 ovarian = tested on: IGROV1 ovarian
K-562 leukemia = tested on: K-562 leukemia
KM12 colon = tested on: KM12 colon
KM20L2 colon = tested on: KM20L2 colon
LOX IMVI melanoma = tested on: LOX IMVI melanoma
M19-MEL melanoma = tested on: M19-MEL melanoma
MALME-3M melanoma = tested on: MALME-3M melanoma
MCF7 breast = tested on: MCF7 breast
MOLT-4 leukemia = tested on: MOLT-4 leukemia
NCI-H226 lung = tested on: NCI-H226 lung
NCI-H23 lung = tested on: NCI-H23 lung
NCI-H460 lung = tested on: NCI-H460 lung
NCI-H522 lung = tested on: NCI-H522 lung
NCI/ADR-RES ovarian = tested on: NCI/ADR-RES ovarian
OVCAR-3 ovarian = tested on: OVCAR-3 ovarian
OVCAR-4 ovarian = tested on: OVCAR-4 ovarian
OVCAR-5 ovarian = tested on: OVCAR-5 ovarian
OVCAR-8 ovarian = tested on: OVCAR-8 ovarian
P388 leukemia = tested on: P388 leukemia
P388/ADR leukemia = tested on: P388/ADR leukemia
RPMI-8226 leukemia = tested on: RPMI-8226 leukemia
RXF 393 renal = tested on: RXF 393 renal
SF-268 CNS = tested on: SF-268 CNS
SF-295 CNS = tested on: SF-295 CNS
SF-539 CNS = tested on: SF-539 CNS
SK-MEL-2 melanoma = tested on: SK-MEL-2 melanoma
SK-MEL-28 melanoma = tested on: SK-MEL-28 melanoma
SK-MEL-5 melanoma = tested on: SK-MEL-5 melanoma
SK-OV-3 ovarian = tested on: SK-OV-3 ovarian
SN12C renal = tested on: SN12C renal
SN12K1 renal = tested on: SN12K1 renal
SNB-19 CNS = tested on: SNB-19 CNS
SNB-75 CNS = tested on: SNB-75 CNS
SNB-78 CNS = tested on: SNB-78 CNS
SW-620 colon = tested on: SW-620 colon
U251 CNS = tested on: U251 CNS
UACC-257 melanoma = tested on: UACC-257 melanoma
UACC-62 melanoma = tested on: UACC-62 melanoma
UO-31 renal = tested on: UO-31 renal
XF 498 CNS = tested on: XF 498 CNS
CAKI-1 renal = tested on: CAKI-1 renal

c1ccc2c(c1)SP1Sc3ccccc3P21 (stereo unspecified)
73.1 µM: TGI (HOP-18 NSCLC)
> 31.6 µM: TGI (SNB-19 CNS)
> 66.6 µM: TGI (NCI-H226 lung)
> 100 µM: TGI (A498 renal) | TGI (A549 NSCLC) | TGI (CCRF-CEM leukemia) | TGI (COLO 205 colon) | TGI (DLD-1 colon) | TGI (DMS 114 small cell lung) | TGI (DMS 273 small cell lung) | TGI (EKVX NSCLC) | TGI (HCC-2998 colon) | TGI (HCT-116 colon) | TGI (HCT-15 colon) | TGI (HL-60(TB) leukemia) | TGI (HOP-62 NSCLC) | TGI (HOP-92 NSCLC) | TGI (HT29 colon) | TGI (IGROV1 ovarian) | TGI (K-562 leukemia) | TGI (KM12 colon) | TGI (KM20L2 colon) | TGI (LOX IMVI melanoma) | TGI (M19-MEL melanoma) | TGI (MALME-3M melanoma) | TGI (MCF7 breast) | TGI (MOLT-4 leukemia) | TGI (NCI-H23 lung) | TGI (NCI-H460 lung) | TGI (NCI-H522 lung) | TGI (NCI/ADR-RES ovarian) | TGI (OVCAR-3 ovarian) | TGI (OVCAR-4 ovarian) | TGI (OVCAR-5 ovarian) | TGI (OVCAR-8 ovarian) | TGI (P388 leukemia) | TGI (P388/ADR leukemia) | TGI (RPMI-8226 leukemia) | TGI (RXF 393 renal) | TGI (SF-268 CNS) | TGI (SF-295 CNS) | TGI (SF-539 CNS) | TGI (SK-MEL-2 melanoma) | TGI (SK-MEL-28 melanoma) | TGI (SK-MEL-5 melanoma) | TGI (SK-OV-3 ovarian) | TGI (SN12C renal) | TGI (SN12K1 renal) | TGI (SNB-75 CNS) | TGI (SNB-78 CNS) | TGI (SW-620 colon) | TGI (U251 CNS) | TGI (UACC-257 melanoma) | TGI (UACC-62 melanoma) | TGI (UO-31 renal) | TGI (XF 498 CNS)

CN(C)c1cccc(OC(=O)NCCCl)c1
> 100 µM: TGI (A549 NSCLC) | TGI (CAKI-1 renal) | TGI (CCRF-CEM leukemia) | TGI (COLO 205 colon) | TGI (DLD-1 colon) | TGI (DMS 114 small cell lung) | TGI (DMS 273 small cell lung) | TGI (EKVX NSCLC) | TGI (HCC-2998 colon) | TGI (HCT-116 colon) | TGI (HCT-15 colon) | TGI (HL-60(TB) leukemia) | TGI (HOP-18 NSCLC) | TGI (HOP-62 NSCLC) | TGI (HOP-92 NSCLC) | TGI (HT29 colon) | TGI (IGROV1 ovarian) | TGI (K-562 leukemia) | TGI (KM12 colon) | TGI (KM20L2 colon) | TGI (LOX IMVI melanoma) | TGI (M19-MEL melanoma) | TGI (MALME-3M melanoma) | TGI (MCF7 breast) | TGI (MOLT-4 leukemia) | TGI (NCI-H226 lung) | TGI (NCI-H23 lung) | TGI (NCI-H460 lung) | TGI (NCI-H522 lung) | TGI (NCI/ADR-RES ovarian) | TGI (OVCAR-3 ovarian) | TGI (OVCAR-4 ovarian) | TGI (OVCAR-5 ovarian) | TGI (OVCAR-8 ovarian) | TGI (P388/ADR leukemia) | TGI (RPMI-8226 leukemia) | TGI (RXF 393 renal) | TGI (SF-268 CNS) | TGI (SF-295 CNS) | TGI (SF-539 CNS) | TGI (SK-MEL-2 melanoma) | TGI (SK-MEL-28 melanoma) | TGI (SK-MEL-5 melanoma) | TGI (SK-OV-3 ovarian) | TGI (SN12C renal) | TGI (SN12K1 renal) | TGI (SNB-19 CNS) | TGI (SNB-75 CNS) | TGI (SNB-78 CNS) | TGI (SW-620 colon) | TGI (U251 CNS) | TGI (UACC-257 melanoma) | TGI (UACC-62 melanoma) | TGI (UO-31 renal) | TGI (XF 498 CNS)
93.6 µM and > 100 µM: TGI (A498 renal)
inactive: GI50 (A498 renal) 13.9 µM | GI50 (CCRF-CEM leukemia) 94.6 µM | GI50 (HOP-92 NSCLC) > 100 µM | GI50 (KM20L2 colon) > 100 µM | GI50 (MALME-3M melanoma) > 100 µM | GI50 (RPMI-8226 leukemia) > 100 µM | GI50 (RXF 393 renal) > 100 µM | GI50 (SNB-75 CNS) > 100 µM | GI50 (SNB-78 CNS) > 100 µM
